According to patent publication US20250084084A1, “Crystalline form of (2R)-2-(5-fluoro-2-methoxypyridin-4-yl)-1-[(2S)-7-methyl-6-(pyrimidin-2-yl)-3,4-dihydro-1H-spiro[1,8-naphthyridine-2,3-pyrrolidin]-1-yl]propan-1-one” (Pfizer Inc., priority 2020, published 2025):

Molecular target: α-melanocyte-stimulating hormone receptor (hMC4R) (Homo sapiens (Human), UniProt P32245)
Experiment: In vitro binding affinity assay using hMC4R (radioligand competition binding, [125I]-(Nle4, D-Phe7)-α-MSH)
Conditions: geometric mean, read-out: Ki (nM) geometric
Description: The binding affinity of test compounds at the α-melanocyte-stimulating hormone receptor (hMC4R) was assessed using a radioligand competition binding assay. Recombinant Chinese hamster ovaries (CHO) cells stably expressing hMC4R (PerkinElmer #ES-191-C) were used for competitive binding. hMC4R membranes were grown in Dulbecco's Modified Essential Medium and Ham's F-12 Medium (DMEM/F12), 10% heat inactivated fetal bovine serum (FBS), 0.4 mg/mL Geneticin and 2 mM L-glutamine. Cell membranes were bulked and frozen until the assay was performed.
Compounds were solubilized in 100% dimethyl sulfoxide (DMSO) to a concentration of 30 mM. A 10-point intermediate dilution series using half log dilutions was created in 100% DMSO with a top concentration of 0.03 mM. The serially diluted compounds were spotted as 1 μL/well, in 96-well Costar 3363 plates. The final compound range in the assay was 300 nM to 0.01 nM with a final DMSO concentration of 1%. Control wells, containing 1 μL of 2 mM ([…]) alpha-melanocyte stimulating hormone (α-MSH-Tocris #2584) was added to the non-specific binding wells and 1 μL 100% DMSO for the total binding control wells. […] The exact concentration of radioligand used for each experiment was determined by liquid scintillation counting and adjusted if necessary.
Frozen hMC4R cell membranes were thawed and Dounce homogenized. Homogenates were resuspended in assay buffer to a concentration of 2 μg per well. […] The plates were incubated for 2 hours at room temperature. Assay samples were then rapidly filtered through Unifilter-96 GF/B PEI coated filter plates using a filter plate harvester (PerkinElmer) and rinsed with ice-cold wash buffer [25 mM (4-(2-hydroxyethyl)-1-piperazineethanesulfonic acid (HEPES), 1 mM MgCl2, 2.5 mM CaCl2, and 500 mM NaCl]. Filter plates were dried overnight at room temperature. Plates were then bottom-sealed prior to the addition of 50 μL/well Ultima Gold XR scintillation fluid (PerkinElmer 6013111). Plates were then top-sealed, incubated for 60 minutes at room temperature and then the amount of radioactivity present was determined by liquid scintillation counting on a Microbeta Trilux (PerkinElmer #2450-0060).
The raw data (expressed as counts per minute) were analyzed using ActivityBase (IDBS Data Management Software). […] Equilibrium dissociation constant for inhibitor of ligand and receptor interaction (Ki) values were then calculated from the IC50 values using the Cheng-Prusoff equation: Ki=IC50/(1+([L]/Kd)), where [L] is the concentration of the radioligand used in the experiment and Kd is the affinity of the radioligand (determined in separate saturation experiments).

Sequence of α-melanocyte-stimulating hormone receptor (hMC4R) (P32245 whole entry): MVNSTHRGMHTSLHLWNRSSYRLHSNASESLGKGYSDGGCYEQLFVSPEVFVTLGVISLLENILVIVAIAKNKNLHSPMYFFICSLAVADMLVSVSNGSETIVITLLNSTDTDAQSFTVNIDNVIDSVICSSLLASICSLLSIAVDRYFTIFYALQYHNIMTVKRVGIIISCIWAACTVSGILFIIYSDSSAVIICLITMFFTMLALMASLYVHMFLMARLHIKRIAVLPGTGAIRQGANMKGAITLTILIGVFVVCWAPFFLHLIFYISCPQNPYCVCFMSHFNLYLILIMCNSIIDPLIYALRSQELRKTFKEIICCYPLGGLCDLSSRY

| SMILES | Ki |
| --- | --- |
| COc1cc([C@@H](C)C(=O)N2CC[C@@]3(CCc4cc(-c5nnn(C)n5)c(C)nc4N3)C2)ccn1 (single isomer, unassigned) [Example 125] | 3.4 nM |
| Cc1nc2c(cc1-c1nc(C(F)F)n(C)n1)CC[C@@]1(CCN(C(=O)Cc3ccc(F)c(F)c3)C1)N2 [Example 121, 1-{(2S)-6-[5-(difluoromethyl)-1-methyl-1H-1,2,4-triazol-3-yl]-7-methyl-3,4-dihydro-1H-spiro[1,8-naphthyridine-2,3′-pyrrolidin]-1′-yl}-2-(3,4-difluorophenyl)ethan-1-one] | 0.49 nM |
| COc1cc([C@@H](C)C(=O)N2CC[C@@]3(CCc4cc(-c5ncccn5)c(C)nc4N3)C2)c(C)cn1 (single isomer, unassigned) [Example 136] | 1.4 nM |

Results, then the compound that gave them:

| Ki | SMILES |
| --- | --- |
| 21 nM | COc1cc([C@@H](C)C(=O)N2CC[C@@]3(CCc4cc(-c5ccc(OC(F)(F)F)cn5)c(C)nc4N3)C2)c(F)cn1 [Example 180, (2R)-2-(5-fluoro-2-methoxypyridin-4-yl)-1-{(2S)-7-methyl-6-[5-(trifluoromethoxy)pyridin-2-yl]-3,4-dihydro-1H-spiro[1,8-naphthyridine-2,3′-pyrrolidin]-1′-yl}propan-1-one] |
| 3.6 nM | COc1cc([C@@H](C)C(=O)N2CC[C@@]3(CCc4cc(-c5csc(C6CC6)n5)c(C)nc4N3)C2)c(F)cn1 [Example 171, (2R)-1-[(2S)-6-(2-cyclopropyl-1,3-thiazol-4-yl)-7-methyl-3,4-dihydro-1H-spiro[1,8-naphthyridine-2,3′-pyrrolidin]-1′-yl]-2-(5-fluoro-2-methoxypyridin-4-yl)propan-1-one] |
| 19 nM | COc1cc([C@@H](C)C(=O)N2CC[C@@]3(CCc4cc(-c5ccc(C6CC6)cn5)c(C)nc4N3)C2)c(F)cn1 [Example 186, (2R)-1-[(2S)-6-(5-cyclopropylpyridin-2-yl)-7-methyl-3,4-dihydro-1H-spiro[1,8-naphthyridine-2,3′-pyrrolidin]-1′-yl]-2-(5-fluoro-2-methoxypyridin-4-yl)propan-1-one] |
| 0.41 nM | COc1cc([C@@H](C)C(=O)N2CC[C@@]3(CCc4cc(-c5nc(C)n(C(F)F)n5)c(C)nc4N3)C2)c(F)cn1 [Example 188, (2R)-1-{(2S)-6-[1-(difluoromethyl)-5-methyl-1H-1,2,4-triazol-3-yl]-7-methyl-3,4-dihydro-1H-spiro[1,8-naphthyridine-2,3′-pyrrolidin]-1′-yl}-2-(5-fluoro-2-methoxypyridin-4-yl)propan-1-one] |
| 3.3 nM | COc1cc([C@@H](C)C(=O)N2CC[C@@]3(CCc4cc(-c5cnc(C)s5)c(C)nc4N3)C2)c(F)cn1 [Example 153, (2R)-2-(5-fluoro-2-methoxypyridin-4-yl)-1-[(2S)-7-methyl-6-(2-methyl-1,3-thiazol-5-yl)-3,4-dihydro-1H-spiro[1,8-naphthyridine-2,3′-pyrrolidin]-1′-yl]propan-1-one] |
| 200 nM | COc1cc([C@@H](C)C(=O)N2CC[C@@]3(CCc4cc(-c5cc6onc(C)c6cc5C)c(C)nc4N3)C2)c(F)cn1 [Example 160, (2R)-1-[(2S)-6-(3,5-dimethyl-1,2-benzoxazol-6-yl)-7-methyl-3,4-dihydro-1H-spiro[1,8-naphthyridine-2,3′-pyrrolidin]-1′-yl]-2-(5-fluoro-2-methoxypyridin-4-yl)propan-1-one] |
| 4.7 nM | COc1cc([C@@H](C)C(=O)N2CC[C@@]3(CCc4cc(-c5cccc(C(F)(F)F)n5)c(C)nc4N3)C2)c(F)cn1 [Example 178, (2R)-2-(5-fluoro-2-methoxypyridin-4-yl)-1-{(2S)-7-methyl-6-[6-(trifluoromethyl)pyridin-2-yl]-3,4-dihydro-1H-spiro[1,8-naphthyridine-2,3′-pyrrolidin]-1′-yl}propan-1-one] |
| 15 nM | COc1cc([C@@H](C)C(=O)N2CC[C@@]3(CCc4cc(-c5nc(C(C)(C)C)cs5)c(C)nc4N3)C2)c(F)cn1 [Example 157, (2R)-1-[(2S)-6-(4-tert-butyl-1,3-thiazol-2-yl)-7-methyl-3,4-dihydro-1H-spiro[1,8-naphthyridine-2,3′-pyrrolidin]-1′-yl]-2-(5-fluoro-2-methoxypyridin-4-yl)propan-1-one] |
| 2.5 nM | COc1cc([C@@H](C)C(=O)N2CC[C@@]3(CCc4cc(-c5cccc(-c6nnc(C)o6)n5)c(C)nc4N3)C2)c(F)cn1 [Example 152, (2R)-2-(5-fluoro-2-methoxypyridin-4-yl)-1-{(2S)-7-methyl-6-[6-(5-methyl-1,3,4-oxadiazol-2-yl)pyridin-2-yl]-3,4-dihydro-1H-spiro[1,8-naphthyridine-2,3′-pyrrolidin]-1′-yl}propan-1-one] |
| 23 nM | COc1cc([C@@H](C)C(=O)N2CC[C@@]3(CCc4cc(-c5cnc(C)nc5)c(C)nc4N3)C2)c(F)cn1 [Example 151, (2R)-2-(5-fluoro-2-methoxypyridin-4-yl)-1-[(2S)-7-methyl-6-(2-methylpyrimidin-5-yl)-3,4-dihydro-1H-spiro[1,8-naphthyridine-2,3′-pyrrolidin]-1′-yl]propan-1-one] |

Same assay, conditions: geometric mean, read-out: Ki (nM) geometric mean

| Ki | SMILES |
| --- | --- |
| 2.2 nM | COc1cc([C@@H](C)C(=O)N2CC[C@@]3(CCc4cc(-c5ncc(C(F)F)cn5)c(C)nc4N3)C2)c(F)cn1 [Example 21, (2R)-1-{(2S)-6-[5-(difluoromethyl)pyrimidin-2-yl]-7-methyl-3,4-dihydro-1H-spiro[1,8-naphthyridine-2,3′-pyrrolidin]-1′-yl}-2-(5-fluoro-2-methoxypyridin-4-yl)propan-1-one] |
| 2.8 nM | COc1cc([C@@H](C)C(=O)N2CC[C@@]3(CCc4ccc(C)nc4N3)C2)c(F)cn1 (single isomer, unassigned) [Example 98] |
| 1.1 nM | COc1cc([C@@H](C)C(=O)N2CC[C@@]3(CCc4ccc(C)nc4N3)C2)c(Cl)cn1 (single isomer, unassigned) [Example 100] |
| 2 nM | COc1cc([C@@H](C)C(=O)N2CC[C@@]3(CCc4cc(-c5ncc(Br)cn5)c(C)nc4N3)C2)c(F)cn1 [Example 22, (2R)-1-[(2S)-6-(5-bromopyrimidin-2-yl)-7-methyl-3,4-dihydro-1H-spiro[1,8-naphthyridine-2,3′-pyrrolidin]-1′-yl]-2-(5-fluoro-2-methoxypyridin-4-yl)propan-1-one] |
| 1.9 nM | COc1ccc([C@@H](C)C(=O)N2CC[C@@]3(CCc4cc(-c5ncccn5)c(C)nc4N3)C2)cc1F (single isomer, unassigned) [Example 42] |
| 2 nM | COc1cc([C@@H](C)C(=O)N2CC[C@@]3(CCc4cc(-c5cn(C(F)(F)F)c(C)n5)c(C)nc4N3)C2)c(F)cn1 [Example 27, (2R)-2-(5-fluoro-2-methoxypyridin-4-yl)-1-{(2S)-7-methyl-6-[2-methyl-1-(trifluoromethyl)-1H-imidazol-4-yl]-3,4-dihydro-1H-spiro[1,8-naphthyridine-2,3′-pyrrolidin]-1′-yl}propan-1-one] |
| 0.45 nM | COc1cc([C@@H](C)C(=O)N2CC[C@@]3(CCc4cc(-c5nc(C(F)(F)F)n(C)n5)c(C)nc4N3)C2)c(F)cn1 (single isomer, unassigned) [Example 92] |
| 1.2 nM | COc1cc([C@@H](C)C(=O)N2CC[C@@]3(CCc4cc(-c5nc(C(F)(F)F)n(C)n5)c(C)nc4N3)C2)c(Cl)cn1 (single isomer, unassigned) [Example 94] |
| 40 nM | COc1cc([C@@H](C)C(=O)N2CC[C@@]3(CCc4cc(-c5cnc(C6CC6)cn5)c(C)nc4N3)C2)c(F)cn1 [Example 70, (2R)-1-[(2S)-6-(5-cyclopropylpyrazin-2-yl)-7-methyl-3,4-dihydro-1H-spiro[1,8-naphthyridine-2,3′-pyrrolidin]-1′-yl]-2-(5-fluoro-2-methoxypyridin-4-yl)propan-1-one] |
| > 2200 nM | Cc1ccc2c(n1)N[C@@]1(CC2)CCN(C(=O)Cc2ccc(F)cc2)C1 (single isomer, unassigned) [Example 88, 2-(4-fluorophenyl)-1-(7-methyl-3,4-dihydro-1H-spiro[1,8-naphthyridine-2,3′-pyrrolidin]-1′-yl)ethan-1-one] |

| SMILES | Ki |
| --- | --- |
| COc1cc([C@H](C)C(=O)N2CC[C@@]3(CCc4cc(-c5ncccn5)c(C)nc4N3)C2)c(F)cn1 [Example 28, (2S)-2-(5-fluoro-2-methoxypyridin-4-yl)-1-[(2S)-7-methyl-6-(pyrimidin-2-yl)-3,4-dihydro-1H-spiro[1,8-naphthyridine-2,3′-pyrrolidin]-1′-yl]propan-1-one] | 160 nM |
